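Cultured in 96-well plates, cells were exposed to test compound for 48 hours across five concentrations. Here, GI50 denotes the concentration required for 50% inhibition of growth.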 Calls of active or inactive are those of the source. No stated cut-off is given here; in the data, active = GI50 up to about 1.1 µM and inactive = higher.
How the values were obtained:
Assay in all cases: NCI anticancer screen, dose series, 48 h
[1] = tested on: NCI-H23
[2] = tested on: NCI-H460
[3] = tested on: COLO 205
[4] = tested on: SN12C
[5] = tested on: OVCAR-3
[6] = tested on: NCI-H522
[7] = tested on: KM-20L2
[8] = tested on: SK-MEL-5
[9] = tested on: HCT-116
[10] = tested on: SF-295
[11] = tested on: U-251
[12] = tested on: LOX IMVI
[13] = tested on: 786-0
[14] = tested on: SNB-19
[15] = tested on: ACHN
[16] = tested on: MDA-N
[17] = tested on: NCI/ADR-RES
[18] = tested on: PC-3
[19] = tested on: T47D

| SMILES | GI50 [1] | GI50 [2] | GI50 [3] | GI50 [4] | GI50 [5] | GI50 [6] | GI50 [7] | GI50 [8] | GI50 [9] | GI50 [10] | GI50 [11] | GI50 [12] | GI50 [13] | GI50 [14] | GI50 [15] | GI50 [16] | GI50 [17] | GI50 [18] | GI50 [19] |
| --- | --- | --- | --- | --- | --- | --- | --- | --- | --- | --- | --- | --- | --- | --- | --- | --- | --- | --- | --- |
| N#CN=C(NCc1ccccc1)NCc1ccccc1 | > 100 µM (inactive) | > 64.7 µM (inactive) | > 42.9 µM (inactive) | > 100 µM (inactive) | > 100 µM (inactive) | > 100 µM (inactive) | > 100 µM (inactive) | > 100 µM (inactive) | 18.4 µM (inactive) | > 100 µM (inactive) | > 48.2 µM (inactive) | > 100 µM (inactive) | > 60.7 µM (inactive) | > 100 µM (inactive) | > 64.9 µM (inactive) | – | – | – | – |
| Cc1ccccc1SC(/C=C/NNC1=NN=C(c2ccccc2)C(c2ccccc2)N1)c1ccccc1 (centres undefined) | 17.5 µM (inactive) | 34.9 µM (inactive) | 36.4 µM (inactive) | 61.2 µM (inactive) | 13.7 µM (inactive) | 33.8 µM (inactive) | 52 µM (inactive) | 26.1 µM (inactive) | – | 18.8 µM (inactive) | 24.9 µM (inactive) | 33.8 µM (inactive) | 11.9 µM (inactive) | 50 µM (inactive) | 15.4 µM (inactive) | – | – | – | – |
| COc1ccc(/C(Cl)=C(\C=O)c2ccc([N+](=O)[O-])cc2)cc1OC | 4.26 µM (inactive) | 9.27 µM (inactive) | 14.2 µM (inactive) | 5.73 µM (inactive) | 11.5 µM (inactive) | 4.07 µM (inactive) | 12.2 µM (inactive) | 8.2 µM (inactive) | 6.15 µM (inactive) | 13.4 µM (inactive) | 6.32 µM (inactive) | 2.87 µM (inactive) | 4.29 µM (inactive) | > 46.5 µM (inactive) | 8.83 µM (inactive) | 3.25 µM (inactive) | 6.38 µM (inactive) | 8.71 µM (inactive) | 6.9 µM (inactive) |
| CCCCn1c2ccccc2c2ccc3c(c21)C(=O)C=CC3=O | > 100 µM (inactive) | > 100 µM (inactive) | > 100 µM (inactive) | > 100 µM (inactive) | > 100 µM (inactive) | > 100 µM (inactive) | > 100 µM (inactive) | > 100 µM (inactive) | > 100 µM (inactive) | > 100 µM (inactive) | > 100 µM (inactive) | > 100 µM (inactive) | > 100 µM (inactive) | > 100 µM (inactive) | > 100 µM (inactive) | – | – | – | – |
| [O-][S+]1c2ccccc2N=C(c2cccs2)CC1c1ccccc1O (centres undefined) | 67.9 µM (inactive) | > 100 µM (inactive) | > 100 µM (inactive) | > 100 µM (inactive) | > 100 µM (inactive) | 65.2 µM (inactive) | > 100 µM (inactive) | > 100 µM (inactive) | – | 70.3 µM (inactive) | – | > 100 µM (inactive) | > 100 µM (inactive) | > 100 µM (inactive) | > 100 µM (inactive) | – | – | – | – |
| CCOC(=O)C12C(C(=O)OC)=C(C)N(NC(=O)Nc3ccccc3)C1(N)N(NC(=O)Nc1ccccc1)C(C)=C2C(=O)OC (centres undefined) | 37.4 µM (inactive) | 40.3 µM (inactive) | > 41.1 µM (inactive) | > 61.5 µM (inactive) | 22.9 µM (inactive) | 20.9 µM (inactive) | 20.5 µM (inactive) | 19.9 µM (inactive) | 25.3 µM (inactive) | 26.1 µM (inactive) | 17.7 µM (inactive) | 17 µM (inactive) | 39.5 µM (inactive) | 29.4 µM (inactive) | 34.1 µM (inactive) | – | – | – | – |
| O=C1c2ccccc2C(=O)N1/N=C\c1ccc(Br)cc1 | > 10 µM (inactive) | > 10 µM (inactive) | > 100 µM (inactive) | > 10 µM (inactive) | > 10 µM (inactive) | > 100 µM (inactive) | > 10 µM (inactive) | > 10 µM (inactive) | > 10 µM (inactive) | > 10 µM (inactive) | > 100 µM (inactive) | > 10 µM (inactive) | > 10 µM (inactive) | > 10 µM (inactive) | > 10 µM (inactive) | – | – | – | – |
| Cc1ccc(-c2cc(=O)c3cc(C)c(C)c(C(=O)O)c3o2)cc1[N+](=O)[O-] | > 100 µM (inactive) | > 100 µM (inactive) | > 100 µM (inactive) | > 100 µM (inactive) | > 100 µM (inactive) | > 100 µM (inactive) | > 100 µM (inactive) | > 100 µM (inactive) | > 100 µM (inactive) | > 100 µM (inactive) | > 100 µM (inactive) | > 100 µM (inactive) | > 100 µM (inactive) | > 100 µM (inactive) | > 100 µM (inactive) | – | – | – | – |
| CC(=O)c1sc(-c2nc(C)c(C(=O)/C=C\c3ccc(/C=C\C(=O)c4sc(-c5nc(C)c(C(C)=O)s5)nc4C)cc3)s2)nc1C | > 100 µM (inactive) | > 100 µM (inactive) | > 100 µM (inactive) | > 100 µM (inactive) | > 100 µM (inactive) | > 100 µM (inactive) | > 100 µM (inactive) | – | > 100 µM (inactive) | > 100 µM (inactive) | > 100 µM (inactive) | > 100 µM (inactive) | > 100 µM (inactive) | > 100 µM (inactive) | > 100 µM (inactive) | – | – | – | – |
| O=C(CCN1CCCC1)CC(c1ccccc1)c1c(O)c2ccccc2oc1=O (centres undefined) | > 100 µM (inactive) | > 100 µM (inactive) | > 100 µM (inactive) | > 100 µM (inactive) | > 100 µM (inactive) | > 100 µM (inactive) | > 100 µM (inactive) | > 100 µM (inactive) | > 100 µM (inactive) | > 100 µM (inactive) | > 100 µM (inactive) | > 100 µM (inactive) | > 100 µM (inactive) | > 100 µM (inactive) | > 100 µM (inactive) | – | – | – | – |
| CC(C)N(C(=O)C12C3C4C5(C#N)C3C1(I)C5C42I)C(C)C (centres undefined) | > 100 µM (inactive) | > 78 µM (inactive) | > 42 µM (inactive) | > 68.2 µM (inactive) | > 100 µM (inactive) | > 100 µM (inactive) | > 66.7 µM (inactive) | > 100 µM (inactive) | 17.8 µM (inactive) | > 100 µM (inactive) | > 84.1 µM (inactive) | > 40.3 µM (inactive) | > 46.1 µM (inactive) | > 100 µM (inactive) | > 100 µM (inactive) | – | – | – | – |
| Cc1ccccc1/C=N/C12CC3CC(CC(C3)C1)C2 | > 100 µM (inactive) | > 100 µM (inactive) | > 100 µM (inactive) | > 100 µM (inactive) | > 100 µM (inactive) | > 100 µM (inactive) | > 100 µM (inactive) | > 100 µM (inactive) | > 100 µM (inactive) | 49.3 µM (inactive) | > 100 µM (inactive) | > 100 µM (inactive) | > 100 µM (inactive) | > 100 µM (inactive) | > 100 µM (inactive) | – | – | – | – |
| CN(C)CC(C)(C)C(=O)/C=C/c1ccc(/C=C/C(=O)C(C)(C)CN(C)C)cc1 | 1.91 µM (inactive) | 3.78 µM (inactive) | 1.03 µM (active) | 1.42 µM (inactive) | 1.29 µM (inactive) | 0.136 µM (active) | 1.04 µM (active) | 2.32 µM (inactive) | 1.26 µM (inactive) | 2.05 µM (inactive) | 1.61 µM (inactive) | 0.456 µM (active) | 1.6 µM (inactive) | 1.96 µM (inactive) | 1.47 µM (inactive) | – | – | – | – |
| COC(=O)[C@@]12C(=O)CCC(=O)C1C1C(=CC2C)O[C@@H]2OC3(CCCCC3)O[C@H]12 (some centres undefined) | > 72.4 µM (inactive) | > 100 µM (inactive) | > 68.1 µM (inactive) | > 100 µM (inactive) | 34.8 µM (inactive) | 18.6 µM (inactive) | > 100 µM (inactive) | > 100 µM (inactive) | 43.8 µM (inactive) | > 100 µM (inactive) | > 100 µM (inactive) | > 72.1 µM (inactive) | > 83.6 µM (inactive) | > 89.5 µM (inactive) | > 55.1 µM (inactive) | – | – | – | – |
| CCCCCCCCCCC(=O)CC(=O)c1c(O)cccc1O | 26.9 µM (inactive) | 34.7 µM (inactive) | 31 µM (inactive) | 29.3 µM (inactive) | 24.2 µM (inactive) | 28.1 µM (inactive) | 50.2 µM (inactive) | 28.4 µM (inactive) | 19.5 µM (inactive) | 36.6 µM (inactive) | 21.5 µM (inactive) | 18.7 µM (inactive) | 36.1 µM (inactive) | 61.8 µM (inactive) | 30 µM (inactive) | – | – | – | – |
| Cc1ccc(C[P+]2(c3ccccc3)CCCCC2)cc1.[O-][Cl+3]([O-])([O-])[O-] | 24.7 µM (inactive) | 37.6 µM (inactive) | 14 µM (inactive) | 37.6 µM (inactive) | 10 µM (inactive) | 16.1 µM (inactive) | 31.2 µM (inactive) | 10.6 µM (inactive) | 1.33 µM (inactive) | 44.2 µM (inactive) | 12.5 µM (inactive) | 26.2 µM (inactive) | 47.4 µM (inactive) | 32.3 µM (inactive) | 81.7 µM (inactive) | – | – | – | – |
| NC(=O)C1C(=O)Oc2cccnc21 (centres undefined) | > 100 µM (inactive) | 86.7 µM (inactive) | > 100 µM (inactive) | > 100 µM (inactive) | > 100 µM (inactive) | > 100 µM (inactive) | > 100 µM (inactive) | > 100 µM (inactive) | > 100 µM (inactive) | > 100 µM (inactive) | > 100 µM (inactive) | > 100 µM (inactive) | > 100 µM (inactive) | > 100 µM (inactive) | > 100 µM (inactive) | – | – | – | – |
| Cc1ccc(N2C(=O)CS/C2=C(\C#N)c2nc3ccccc3[nH]2)cc1 | > 100 µM (inactive) | > 100 µM (inactive) | > 100 µM (inactive) | > 100 µM (inactive) | > 100 µM (inactive) | > 100 µM (inactive) | > 100 µM (inactive) | > 100 µM (inactive) | > 100 µM (inactive) | – | > 100 µM (inactive) | > 100 µM (inactive) | > 100 µM (inactive) | > 100 µM (inactive) | > 100 µM (inactive) | – | – | – | – |
